The text below walks through data of paper PMC12040169 (PLOS Biology, 2025).

The data set is described as follows: in vitro. The following applies: human, hela cells, % viability.

`CC(NC(=O)CCc1ccncc1)c1ccc2c(c1)CCCO2` (stereo not shown) [CBK281624]: the viability at 28.5 h, 10 µM is 88.3%.

As for `Cc1ccc(-n2c(SCC(=O)N3CCCCC3)nnc2-c2cc(Br)ccc2O)c(C)c1` [CBK269070], the viability at 28.5 h, 10 µM worked out at 94.7%.

In the case of `Cc1cc2c(s1)c1cnn(CC(=O)NC(C)(C)C)c(=O)c1n2C` [CBK284158], the viability at 28.5 h, 10 µM is 86.6%.

In the case of `CNC(=O)C1(Cc2ccc(-c3ccccc3)cc2)CCN(C(=O)CCc2ccccc2)CC1` [CBK285765], the viability at 28.5 h, 10 µM is 91.8%.

With `CCCC(=O)c1ccc(S(=O)(=O)N2CCN(Cc3cccc(Br)c3)CC2)cc1` [CBK063146], the viability at 28.5 h, 10 µM stood at 87.4%.

For `O=[N+]([O-])c1ccc(N2CCN(Cc3c(O)ccc4ccccc34)CC2)cc1NCc1ccccc1` [CBK268408], the viability at 28.5 h, 10 µM was 105%.

Take `O=C(O)/C=C/c1cccc(-c2cnc3[nH]c(=O)n(C4CC4)c3n2)c1` [CBK065091]: the viability at 28.5 h, 10 µM was found to be 93.5%.

Regarding `COC(=O)C1(Cc2cc(-c3ccc(F)cc3)no2)CCOCC1` [CBK285329], the viability at 28.5 h, 10 µM stood at 79.3%.

As to `COc1ccc(C(=O)N2CCC3(CCN(C(=O)c4cccc(C#N)c4)C3)C2)cc1OC` (stereo not shown) [CBK131773], the viability at 28.5 h, 10 µM stood at 98.3%.

Take `COC(=O)c1ccc(N2CCN(C)CC2)c(NC(=O)c2cc(Br)ccc2OC)c1` [CBK269221]: the viability at 28.5 h, 10 µM is 92%.

Regarding `Cc1cc(Cl)ccc1OCCCC(=O)Nc1sc2c(c1C(N)=O)CCCCCC2` [CBK265390], the viability at 28.5 h, 10 µM worked out at 94.8%.

On to `COCCCn1c(=O)[nH]c2ncc(-c3cccc(OC)c3)nc21` [CBK064519], for which the viability at 28.5 h, 10 µM was 108%.

Take `CN(C)CCN(Cc1ccccn1)c1ncccn1` [CBK020142]: the viability at 28.5 h, 10 µM was determined as 116%.

For `Cc1nonc1CN(C)C(=O)C1CC2C=CC1C21CC1` (stereo not shown) [CBK282076], the viability at 28.5 h, 10 µM is 97.2%.

Take `O=C(Nc1nc2ccccc2[nH]1)C1c2ccccc2Oc2ccccc21` [CBK265454]: the viability at 28.5 h, 10 µM was 98.9%.

Take `CCOC(=O)c1c(C#N)c(SCc2ccc(Cl)cc2)nc2c1CN(CC)CC2` [CBK021337]: the viability at 28.5 h, 10 µM turned out to be 90.9%.

For `CN1CCN(c2ccccc2NC(=O)c2ccc3c(c2)OCCO3)CC1` [CBK268072], the viability at 28.5 h, 10 µM turned out to be 101%.

Take `COC(=O)c1sc(NC(=O)C2CCCCC2C(=O)O)c(C(=O)OC)c1C` (stereo not shown) [CBK265389]: the viability at 28.5 h, 10 µM is 106%.

As for `CN(C)CCN(C)c1nc(-c2ccc(C(C)(C)C)cc2)cn2ccnc12` [CBK066477], the viability at 28.5 h, 10 µM is 107%.

Regarding `CCC(C)NS(=O)(=O)c1ccc(OCC(=O)O)cc1` (stereo not shown) [CBK266521], the viability at 28.5 h, 10 µM was determined as 120%.

Consider `CN1CCN(c2ccnc3cc(Cl)ccc23)CC1` [CBK066867C], for which the viability at 28.5 h, 10 µM was 86%.

As for `COc1ccc2nc(NC(=O)c3cccc(N4C(=O)CCC4=O)c3)sc2c1` [CBK287351], the viability at 28.5 h, 10 µM is 108%.

For `CCc1nnc(NS(=O)(=O)c2ccc(Nc3ccc4nonc4c3[N+](=O)[O-])cc2)s1` [CBK261445], the viability at 28.5 h, 10 µM was 98%.

As for `O=c1[nH]c2ccc(Oc3ccc4[nH]c(=O)c(=O)[nH]c4c3)cc2[nH]c1=O` [CBK293978], the viability at 28.5 h, 10 µM was 101%.

For the compound `Cc1cccc(-c2ocnc2C(=O)NCCCn2ccnc2)c1` [CBK282418], the viability at 28.5 h, 10 µM is 80.1%.

As to `O=C1c2ccccc2S(=O)(=O)N1CC(O)Cn1c2ccc(Br)cc2c2cc(Br)ccc21` (stereo not shown) [CBK262347], the viability at 28.5 h, 10 µM stood at 112%.

On to `CC(C)CSc1nnc(-c2ccccc2F)n1CC(C)C` [CBK200091], for which the viability at 28.5 h, 10 µM turned out to be 95.8%.

For the compound `Cn1cc(CC(=O)Nc2nc3c(cc2C#N)CCCC3)cn1` [CBK306436], the viability at 28.5 h, 10 µM came out at 90.7%.

For `COc1ccc(C2(C(=O)NCc3ccc(Cl)c(Cl)c3)CC2)cc1` [CBK149827], the viability at 28.5 h, 10 µM was 98.7%.

On to `CCN(CC)CCNC(=O)/C(=N\O)c1ccccc1` [CBK288408], for which the viability at 28.5 h, 10 µM was 106%.

On to `O=C(NCCc1ccccc1)c1ccccc1NS(=O)(=O)N1CCCC1` [CBK268407], for which the viability at 28.5 h, 10 µM stood at 80.5%.

As to `COc1cccc2cc(C(=O)C3=C(O)C(=O)N(CCN4CCOCC4)C3c3cccs3)oc12` (stereo not shown) [CBK269433], the viability at 28.5 h, 10 µM came out at 101%.

Take `COc1cc2c(cc1C(C)c1ccc3c(c1)OCO3)OCO2` (stereo not shown) [CBK200107]: the viability at 28.5 h, 10 µM stood at 97.4%.

In the case of `O=C(c1cccnc1)N1CCN(S(=O)(=O)c2ccc([N+](=O)[O-])cc2)CC1` [CBK264300], the viability at 28.5 h, 10 µM came to 92.5%.

Turning to `Oc1ccc(Nc2ncnc3scc(-c4ccccc4)c23)cc1` [CBK269146C], the viability at 28.5 h, 10 µM turned out to be 108%.

In the case of `CN1CCN(CCOC(=O)N2CCN(C(c3ccccc3)c3ccccc3)CC2)CC1` [CBK200419], the viability at 28.5 h, 10 µM stood at 89%.

Consider `COc1ccc(/C=C(\C)C(=O)NCc2ccccc2OC2CCNC2)cc1OC` (stereo not shown) [CBK034157T], for which the viability at 28.5 h, 10 µM was 90%.

As for `Cc1ocnc1C(=O)NCC1CCN(c2ccccc2F)C1` (stereo not shown) [CBK304671], the viability at 28.5 h, 10 µM was 92.6%.

In the case of `Cc1ccc(C(=O)Nc2ccc(C(=O)O)cc2)cc1S(=O)(=O)NCc1ccccc1` [CBK263219], the viability at 28.5 h, 10 µM is 101%.

Regarding `COc1ccnc(N2CCCN(CCN3CCOCC3)CC2)n1` [CBK084120], the viability at 28.5 h, 10 µM was found to be 119%.

On to `CN(CCO)S(=O)(=O)c1ccccc1[N+](=O)[O-]` [CBK261457], for which the viability at 28.5 h, 10 µM turned out to be 102%.

In the case of `COc1ccc(CCC(C)NC2CCCc3c2[nH]c2ccc([N+](=O)[O-])cc32)cc1` (stereo not shown) [CBK262876], the viability at 28.5 h, 10 µM is 71.6%.

In the case of `O=C(CSc1nnc(-c2ccncc2)n1-c1ccccc1)Nc1ccnc2ccccc12` [CBK267900], the viability at 28.5 h, 10 µM turned out to be 101%.

`C[C@@H](Nc1nc(-c2cccc3ncccc23)cnc1N)c1ccccc1` [CBK063755]: the viability at 28.5 h, 10 µM amounted to 107%.

With `Cc1cc2ccccc2n1CCCNS(=O)(=O)c1ccc2[nH]c(=O)[nH]c(=O)c2c1` [CBK286362], the viability at 28.5 h, 10 µM came out at 96%.

For `O=S(=O)(Nc1nnn[nH]1)c1ccc(-c2ccccc2)cc1` [CBK062381], the viability at 28.5 h, 10 µM was 99.7%.

As to `CCOC(=O)CCNC(C)C1COc2ccccc2O1` (stereo not shown) [CBK074284G], the viability at 28.5 h, 10 µM was determined as 101%.

With `CCSc1nc(=O)c2c(n1C)NC(=O)CC2c1ccc(OC)cc1` (stereo not shown) [CBK307542], the viability at 28.5 h, 10 µM came out at 89.9%.

As for `Cn1c(=O)c2[nH]c(-c3ccc(OCC(=O)NCCc4ccccc4)cc3)nc2n(C)c1=O` [CBK269092], the viability at 28.5 h, 10 µM stood at 97.9%.

Regarding `CCCn1cc(CN2C3CCC2CC(O)(c2ccc(F)cc2)C3)cn1` (stereo not shown) [CBK282971], the viability at 28.5 h, 10 µM was 91.5%.

Take `COc1ccc(S(=O)(=O)N2CCC3(CC2)CC(=O)c2ccc(C)cc2O3)cc1OC` [CBK166515]: the viability at 28.5 h, 10 µM was found to be 96.8%.

On to `O=C(Nc1cc2ccccc2c(Br)n1)c1ccc(C(F)(F)F)cc1[N+](=O)[O-]` [CBK063299], for which the viability at 28.5 h, 10 µM stood at 92.5%.

On to `NC(=O)C(=O)c1cn(Cc2ccccc2)c2ccccc12` [CBK288473], for which the viability at 28.5 h, 10 µM (bulk resorufin, single well) amounted to 96.2%.

Regarding `CC(=O)Nc1nc2ccc(S(C)(=O)=O)cc2s1` [CBK287336], the viability at 28.5 h, 10 µM is 110%.

With `COCCCNCCn1cnc2c(N)ncnc21` [CBK277059], the viability at 28.5 h, 10 µM came out at 88.9%.

For `CCOc1cccc(C(=O)NN2CCN(C)CC2)c1` [CBK268184], the viability at 28.5 h, 10 µM was found to be 97.7%.

`COc1ccccc1-c1ccc(CN(C)Cc2ccccc2N2CCOCC2)cc1` [CBK286108]: the viability at 28.5 h, 10 µM worked out at 90.6%.

In the case of `OC1(c2cccnc2F)CCN(Cc2ccc(F)cc2F)CC1` [CBK284369], the viability at 28.5 h, 10 µM came out at 82.6%.

With `O=C(/C=C/c1c(F)cccc1Cl)Nc1nnn[nH]1` [CBK265447], the viability at 28.5 h, 10 µM stood at 102%.

Turning to `COc1ccccc1N(CCCc1cc(C(F)(F)F)cc(C(F)(F)F)c1)C(=O)C(N)C(C)C` (stereo not shown) [CBK001004T], the viability at 28.5 h, 10 µM was 98.5%.

For the compound `CN(C)CCNC1CS(=O)(=O)CC1O` (stereo not shown) [CBK059025], the viability at 28.5 h, 10 µM turned out to be 84.8%.

On to `CN(C)c1ccc(CC(=O)Nc2cnc(-c3ccc(F)c(Cl)c3)c(-c3ccco3)n2)cc1` [CBK037581], for which the viability at 28.5 h, 10 µM came out at 97.9%.

Regarding `CCC(CC)C(=O)N1CCCC1c1nn(C)cc1-c1cc(C)no1` (stereo not shown) [CBK283452], the viability at 28.5 h, 10 µM is 84.5%.

For the compound `O=C(c1nccs1)C1CCN(C(=O)c2cc(F)cc(F)c2)CC1` [CBK284200], the viability at 28.5 h, 10 µM amounted to 96.9%.

For `CC(=O)N(C)Cc1cccc(Nc2ncnc3c2cnn3CCC#N)c1` [CBK306232], the viability at 28.5 h, 10 µM worked out at 88.5%.

In the case of `CCOC(=O)c1c(NC(=O)CCC(=O)O)sc2c1CCCCC2` [CBK262648], the viability at 28.5 h, 10 µM amounted to 100%.

As to `COC(=O)c1cc(Cl)c(NC(=S)NC(=O)C(C)(C)C)cc1OC` [CBK020937], the viability at 28.5 h, 10 µM is 94.1%.

For the compound `Cc1ccc(-c2ccn(C(C)C(=O)N(C)C)n2)cc1` (stereo not shown) [CBK016069], the viability at 28.5 h, 10 µM amounted to 98.4%.

As for `O=C(N[C@@H]1CCOC[C@H]1Oc1ccc(CO)cc1)c1ccc(F)cc1` [CBK306571], the viability at 28.5 h, 10 µM was 112%.

For `Cc1c(Br)c([N+](=O)[O-])nn1C(C)C(=O)NCc1ccco1` (stereo not shown) [CBK269108], the viability at 28.5 h, 10 µM was found to be 92.2%.

As to `NS(=O)(=O)c1ccc(CCNC2CC(=O)N(Cc3cccs3)C2=O)cc1` (stereo not shown) [CBK266579], the viability at 28.5 h, 10 µM is 91.1%.

In the case of `c1ccc(N2CCN(C3CCN(Cc4ccccn4)CC3)CC2)cc1` [CBK264684G], the viability at 28.5 h, 10 µM came to 110%.

For `Cc1nnc(SCC(=O)NC2CC3CCC2C3)[nH]1` (stereo not shown) [CBK270239], the viability at 28.5 h, 10 µM was 88.1%.

Regarding `CC(C)C(=O)N1CC(C)N(CCCC(c2ccc(F)cc2)c2ccc(F)cc2)CC1C` (stereo not shown) [CBK024961C], the viability at 28.5 h, 10 µM is 97.6%.

For the compound `COc1ccc(OC)c(C(=O)c2coc3ccc(OCC(=O)O)cc23)c1` [CBK111288], the viability at 28.5 h, 10 µM is 91.8%.

Take `CCN(CC)c1c(C)nc2ccc(C(=O)N(C)CCN(C)C)cn12` [CBK145950]: the viability at 28.5 h, 10 µM came to 90.6%.

Consider `Cc1ccc(S(=O)(=O)NCCSCc2ccc(Cl)cc2)cc1[N+](=O)[O-]` [CBK264056], for which the viability at 28.5 h, 10 µM was 104%.

Turning to `Nc1nc(N)c2cccc(F)c2n1` [CBK025945], the viability at 28.5 h, 10 µM turned out to be 91.4%.

Regarding `COc1cccc(NC(=O)CCS(=O)(=O)c2cccs2)c1` [CBK071069], the viability at 28.5 h, 10 µM is 100%.

Usually viability stands for a read-out of living cells in per cent, often relative to untreated cells.
